Data as given in DBAASP.
In brackets after ≈: the same amount, converted by molar mass. Blank lines part the entries; values can stand above or below the compound they belong to.

Legend:
Assay in all cases: ≥ marks a high value that may be exact or a test limit, other limits are often not marked, values filed in µg/mL are converted to µM
[1] = test system: Escherichia coli ATCC 25922
[2] = test system: Bacillus subtilis ATCC 6633
[3] = test system: Candida albicans ATCC 2002
[4] = test system: Shigella dysenteriae
[5] = test system: Staphylococcus aureus ATCC 2592
[6] = test system: Bacillus subtilis ATCC 23857
[7] = test system: Pseudomonas aeruginosa ATCC 9027
[8] = test system: Staphylococcus aureus ATCC 6538
[9] = test system: Klebsiella pneumoniae ATCC 700603
[10] = test system: Escherichia coli
[11] = test system: Staphylococcus aureus ATCC 25923
[12] = test system: Staphylococcus epidermidis ATCC 12228
[13] = test system: Micrococcus luteus ATCC 9341
[14] = test system: Bacillus cereus
[15] = test system: Pseudomonas aeruginosa
[16] = test system: Escherichia coli JW0013

- MIC [16]: 0.687 µM (≈ 1.7 µg/mL)
Compound: CC[C@H](C)[C@H](NC(=O)[C@H](CCCN=C(N)N)NC(=O)[C@H](CCCN=C(N)N)NC(=O)[C@@H]1CCCN1C(=O)[C@@H]1CCCN1C(=O)[C@H](CCCN=C(N)N)NC(=O)[C@H](CCCN=C(N)N)NC(=O)[C@H](CCCN=C(N)N)NC(=O)[C@@H]1CCCN1C(=O)[C@H](CC(C)C)NC(=O)[C@H](CCCN=C(N)N)NC(=O)[C@@H]1CCCN1C(=O)[C@H](CCCCN)NC(=O)[C@H](CCCCN)NC(=O)[C@H](CC(=O)O)NC(=O)[C@@H](N)C(C)C)C(=O)N[C@@H](Cc1ccc(O)cc1)C(=O)N[C@@H](CC(N)=O)C(=O)N[C@@H](CCCN=C(N)N)C(N)=O [VDKKPRLPRRRPPRRIYNR]

- MIC [16]: 0.481 µM (≈ 1.2 µg/mL)
Compound: CC[C@H](C)[C@H](NC(=O)[C@H](CCCN=C(N)N)NC(=O)[C@H](CCCN=C(N)N)NC(=O)[C@@H]1CCCN1C(=O)[C@@H]1CCCN1C(=O)[C@H](CCCN=C(N)N)NC(=O)[C@H](CCCN=C(N)N)NC(=O)[C@H](CCCN=C(N)N)NC(=O)[C@@H]1CCCN1C(=O)[C@H](CCCCN)NC(=O)[C@H](Cc1ccc(O)cc1)NC(=O)[C@@H]1CCCN1C(=O)[C@H](CCCCN)NC(=O)[C@H](CCCCN)NC(=O)[C@H](CC(=O)O)NC(=O)[C@@H](N)C(C)C)C(=O)N[C@@H](Cc1ccc(O)cc1)C(=O)N[C@@H](CC(N)=O)C(=O)N[C@@H](CCCN=C(N)N)C(N)=O [VDKKPYKPRRRPPRRIYNR]

- MIC [16]: 0.628 µM (≈ 1.6 µg/mL)
Compound: CC[C@H](C)[C@H](NC(=O)[C@H](CCCN=C(N)N)NC(=O)[C@H](CCCN=C(N)N)NC(=O)[C@@H]1CCCN1C(=O)[C@@H]1CCCN1C(=O)[C@H](CCCN=C(N)N)NC(=O)[C@H](CCCN=C(N)N)NC(=O)[C@H](CCCN=C(N)N)NC(=O)[C@@H]1CCCN1C(=O)[C@H](CC(C)C)NC(=O)[C@H](Cc1ccc(O)cc1)NC(=O)[C@H](Cc1cnc[nH]1)NC(=O)[C@H](CCCN=C(N)N)NC(=O)[C@H](CCCCN)NC(=O)[C@H](CC(=O)O)NC(=O)[C@@H](N)C(C)C)C(=O)N[C@@H](Cc1ccc(O)cc1)C(=O)N[C@@H](CC(N)=O)C(=O)N[C@@H](CCCN=C(N)N)C(N)=O [VDKRHYLPRRRPPRRIYNR]

- MIC [16]: 1.34 µM (≈ 3.3 µg/mL)
Compound: CC[C@H](C)[C@H](NC(=O)[C@H](CCCN=C(N)N)NC(=O)[C@H](CCCN=C(N)N)NC(=O)[C@@H]1CCCN1C(=O)[C@@H]1CCCN1C(=O)[C@H](CCCN=C(N)N)NC(=O)[C@@H]1CCCN1C(=O)[C@H](CCCN=C(N)N)NC(=O)[C@@H]1CCCN1C(=O)[C@H](CCCCN)NC(=O)[C@H](CCCN=C(N)N)NC(=O)[C@@H]1CCCN1C(=O)[C@H](CCCN=C(N)N)NC(=O)[C@H](CCCCN)NC(=O)[C@H](CC(=O)O)NC(=O)[C@@H](N)C(C)C)C(=O)N[C@@H](Cc1ccc(O)cc1)C(=O)N[C@@H](CC(N)=O)C(=O)N[C@@H](CCCN=C(N)N)C(N)=O [VDKRPRKPRPRPPRRIYNR]

- MIC [16]: 1.24 µM (≈ 3.1 µg/mL)
Compound: CC[C@H](C)[C@H](NC(=O)[C@H](CCCN=C(N)N)NC(=O)[C@H](CCCN=C(N)N)NC(=O)[C@@H]1CCCN1C(=O)[C@@H]1CCCN1C(=O)[C@H](CCCN=C(N)N)NC(=O)[C@H](CCCCN)NC(=O)[C@H](CCCN=C(N)N)NC(=O)[C@@H]1CCCN1C(=O)[C@H](CCCCN)NC(=O)[C@H](Cc1ccc(O)cc1)NC(=O)[C@@H]1CCCN1C(=O)[C@H](CCCN=C(N)N)NC(=O)[C@H](CCCCN)NC(=O)[C@H](CC(=O)O)NC(=O)[C@@H](N)C(C)C)C(=O)N[C@@H](Cc1ccc(O)cc1)C(=O)N[C@@H](CC(N)=O)C(=O)N[C@@H](CCCN=C(N)N)C(N)=O [VDKRPYKPRKRPPRRIYNR]

The remaining lines, values behind:

Compound: CC[C@H](C)[C@@H]1NC(=O)[C@@H]2CCCN2C(=O)[C@@H](NC(=O)[C@H](Cc2ccccc2)NC(=O)[C@H](CC(C)C)NC(=O)[C@@H](NC(=O)[C@@H]2CCCN2C(=O)[C@@H](NC(=O)[C@@H](NC(=O)[C@H](CCCCN)NC(=O)[C@H](Cc2ccccc2)NC(=O)[C@H](C)NC(=O)[C@@H](NC(=O)[C@H](CCCCN)NC(=O)[C@H](CC(C)C)NC(=O)[C@H](CC(C)C)NC(=O)[C@@H](NC(=O)[C@H](CO)NC(=O)[C@H](CC(C)C)NC(=O)[C@@H](N)Cc2ccccc2)[C@@H](C)O)C(C)C)C(C)C)C(C)C)[C@@H](C)O)CSSC[C@@H](C(N)=O)NC(=O)[C@H](CCCCN)NC(=O)[C@H](CCCCN)NC(=O)[C@H]([C@@H](C)O)NC1=O [FLSTLLKVAFKVVPTLFCPITKKC]
- MIC [1]: 6.95 µM (≈ 18.7 µg/mL)
- MIC [2]: 1.74 µM (≈ 4.69 µg/mL)
- MIC [3]: 1.74 µM (≈ 4.69 µg/mL)
- MIC [4]: 3.48 µM (≈ 9.37 µg/mL)
- MIC [5]: 0.434 µM (≈ 1.17 µg/mL)

Compound: CC[C@H](C)[C@H](NC(=O)CN)C(=O)N[C@H](C(=O)N[C@@H](C)C(=O)NCC(=O)N[C@H](C(=O)N[C@H](C(=O)N[C@H](C(=O)N[C@@H](CCCCN)C(=O)N[C@H](C(=O)N[C@@H](CCCCN)C(=O)N[C@@H](C)C(N)=O)[C@@H](C)CC)[C@@H](C)CC)[C@@H](C)CC)[C@@H](C)CC)[C@@H](C)CC [GIIAGIIIKIKA]
- MIC [1]: > 128 µM
- MIC [6]: ≥ 128 µM

Compound: CC[C@H](C)[C@H](NC(=O)[C@H](CCCCN)NC(=O)[C@H](CCCCN)NC(=O)[C@@H](NC(=O)[C@@H](NC(=O)[C@H](CCCCN)NC(=O)[C@H](CCCCN)NC(=O)[C@@H](NC(=O)[C@@H](NC(=O)[C@H](CCCCN)NC(=O)[C@H](CCCCN)NC(=O)[C@@H](NC(=O)[C@@H](NC(=O)CN)[C@@H](C)CC)C(C)C)[C@@H](C)CC)C(C)C)[C@@H](C)CC)C(C)C)C(N)=O [GIVKKIVKKIVKKI]
- MIC [1]: 22 µM (≈ 35 µg/mL)
- MIC [7]: 21 µM (≈ 33.5 µg/mL)
- MIC [8]: 128 µM (≈ 204 µg/mL)
- MIC [6]: 1.7 µM (≈ 2.71 µg/mL)

Compound: CC[C@H](C)[C@H](NC(=O)[C@H](CCCCN)NC(=O)[C@H](CCCCN)NC(=O)[C@H](C)NC(=O)[C@@H](NC(=O)[C@H](C)NC(=O)[C@H](CC(C)C)NC(=O)[C@H](CC(C)C)NC(=O)[C@H](C)NC(=O)[C@H](CCCCN)NC(=O)[C@H](CC(C)C)NC(=O)[C@H](CC(N)=O)NC(=O)CN)C(C)C)C(=O)N[C@@H](CC(C)C)C(N)=O [GNLKALLAVAKKIL]
- MIC [9]: 16 µM (≈ 23.2 µg/mL)
- MIC [10]: 8 µM (≈ 11.6 µg/mL)
- MIC [6]: 4 µM (≈ 5.8 µg/mL)
- MIC [11]: 32 µM (≈ 46.4 µg/mL)

Compound: CC[C@H](C)[C@H](N)C(=O)N[C@@H](CC(C)C)C(=O)NCC(=O)N[C@H](C(=O)N[C@H](C(=O)N[C@@H](CC(C)C)C(=O)NCC(=O)N[C@@H](CC(C)C)C(=O)N[C@@H](CC(C)C)C(=O)N[C@@H](CCCCN)C(=O)N[C@@H](C)C(=O)N[C@@H](CC(C)C)C(N)=O)[C@@H](C)CC)[C@@H](C)O [ILGTILGLLKAL]
- MIC [1]: 64 µM (≈ 78.3 µg/mL)
- MIC [6]: 8 µM (≈ 9.79 µg/mL)
- MIC [11]: 16 µM (≈ 19.6 µg/mL)
- MIC [12]: 16 µM (≈ 19.6 µg/mL)

Compound: CC[C@H](C)[C@H](N)C(=O)N[C@@H](CC(C)C)C(=O)N1CCC[C@H]1C(=O)N[C@@H](Cc1cnc[nH]1)C(=O)N[C@@H](CCCCN)C(=O)N[C@@H](Cc1cnc[nH]1)C(=O)N1CCC[C@H]1C(=O)N[C@@H](Cc1cnc[nH]1)C(=O)N[C@@H](Cc1cnc[nH]1)C(=O)N1CCC[C@H]1C(=O)N[C@@H](Cc1cnc[nH]1)C(=O)N[C@@H](CCCN=C(N)N)C(=O)N[C@@H](CCCN=C(N)N)C(N)=O [ILPHKHPHHPHRR]
- MIC [13]: ≥ 100 µM

Compound: CSCC[C@@H]1NC(=O)[C@H](CC(C)C)NC(=O)[C@H](C)NC(=O)[C@H](CCCN=C(N)N)NC(=O)[C@H](Cc2ccccc2)NC(=O)[C@H](CC(C)C)NC(=O)CNC(=O)[C@H](CCCCN)NC(=O)[C@@H](NC(=O)[C@H](CCCN=C(N)N)NC(=O)[C@@H]2CCCN2C(=O)[C@@H](NC(=O)[C@H](CO)NC(=O)[C@H](Cc2ccc(O)cc2)NC(=O)[C@H](C)NC(=O)[C@@H](N)CCCCN)[C@@H](C)O)CSSC[C@@H](C(=O)N[C@@H](Cc2c[nH]c3ccccc23)C(=O)N[C@@H](CC(C)C)C(N)=O)NC1=O [KAYSTPRCKGLFRALMCWL]
- MIC [1]: 5.57 µM (≈ 12.5 µg/mL)
- MIC [14]: 22.3 µM (≈ 49.9 µg/mL)
- MIC [15]: 22.3 µM (≈ 49.9 µg/mL)
- MIC [3]: 22.3 µM (≈ 49.9 µg/mL)
- MIC [4]: 2.78 µM (≈ 6.24 µg/mL)
- MIC [5]: 5.57 µM (≈ 12.5 µg/mL)

Compound: CC[C@H](C)[C@H](NC(=O)[C@H](CCCN=C(N)N)NC(=O)[C@H](CCCN=C(N)N)NC(=O)[C@@H]1CCCN1C(=O)[C@@H]1CCCN1C(=O)[C@H](CCCN=C(N)N)NC(=O)[C@@H]1CCCN1C(=O)[C@H](CCCN=C(N)N)NC(=O)[C@@H]1CCCN1C(=O)[C@H](CC(C)C)NC(=O)[C@H](Cc1ccc(O)cc1)NC(=O)[C@@H]1CCCN1C(=O)[C@@H]1CCCN1C(=O)[C@H](CCCCN)NC(=O)[C@H](Cc1ccccc1)NC(=O)[C@@H](N)C(C)C)C(=O)N[C@@H](Cc1ccc(O)cc1)C(=O)N[C@@H](CC(N)=O)C(=O)N[C@@H](CCCN=C(N)N)C(N)=O [VFKPPYLPRPRPPRRIYNR]
- MIC [16]: 1.98 µM (≈ 4.8 µg/mL)
